Experimental data taken from paper PMC6486640, “The ATPase mechanism of UvrA2 reveals the distinct roles of proximal and distal ATPase sites in nucleotide excision repair” (Nucleic Acids Research, 2019).

Columns and labels:
[1] = target: T1, T. maritima UvrA Δ117-399 (Thermotoga maritima, UniProt Q9WYV0, DEL117-399); experiment: X-ray crystal structure, […] Å; type: binding; conditions: ADP in proximal and distal sites
T1 construct: internal deletion of 117-399; preparation in Supplementary Data
T1 sequence (Q9WYV0 other isoform, or with tags, fused parts or gaps DEL117-399): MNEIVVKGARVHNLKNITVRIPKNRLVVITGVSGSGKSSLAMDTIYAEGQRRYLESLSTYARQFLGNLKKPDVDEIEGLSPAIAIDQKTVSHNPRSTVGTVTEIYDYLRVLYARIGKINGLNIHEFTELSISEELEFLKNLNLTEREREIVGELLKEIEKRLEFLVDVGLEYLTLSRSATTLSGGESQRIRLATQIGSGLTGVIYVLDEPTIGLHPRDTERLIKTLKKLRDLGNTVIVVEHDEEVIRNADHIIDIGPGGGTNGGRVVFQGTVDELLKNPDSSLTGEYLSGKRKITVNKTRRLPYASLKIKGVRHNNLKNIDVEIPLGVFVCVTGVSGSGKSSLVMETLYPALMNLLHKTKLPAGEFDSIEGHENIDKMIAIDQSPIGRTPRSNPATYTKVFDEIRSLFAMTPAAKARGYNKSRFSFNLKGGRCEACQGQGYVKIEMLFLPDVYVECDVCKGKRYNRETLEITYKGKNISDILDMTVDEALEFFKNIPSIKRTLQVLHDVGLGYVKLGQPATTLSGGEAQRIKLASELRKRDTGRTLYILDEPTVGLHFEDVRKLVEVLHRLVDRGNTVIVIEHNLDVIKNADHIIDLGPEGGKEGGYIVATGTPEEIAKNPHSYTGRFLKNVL

[2] = target: T2, UvrA2 (Geobacillus stearothermophilus, UniProt A0ACH1EC70); experiment: global fit of pre-steady state Pi release (MDCC-PBP stopped-flow), KinTek Explorer; type: biochemical; conditions: no DNA; pH 7.4, 5 mM MgCl2, 40°C; distal (high-affinity) sites; best-fit model value; proximal sites are a weaker second site
T2 construct: gene uvrA; pET28a-NHis-UvrA, N-terminal His tag, expressed in E. coli Rosetta (DE3) pLysS; heat-treated to remove ADP; homodimer with proximal and distal ATPase sites per monomer
Text: global fit of pre-steady state Pi release (MDCC-PBP stopped-flow), KinTek Explorer on UvrA2

[3] = target: UvrA2 (UvrA dimer, wild type) (Geobacillus stearothermophilus, UniProt A0ACH1EC70 1-952); experiment: fluorescence anisotropy; 0-250 nM UvrA2, 7.5 nM DNA; Equilibrium fluorescence anisotropy, 7.5 nM DNA, 0-250 nM UvrA2; anisotropy buffer and temperature not in the material (other assays of the paper: 20 mM Tris-HCl pH 7.4, 0.15 M NaCl, 5% glycerol, 5 mM MgCl2, 5 mM DTT, 40 C); conditions: protein: recombinant, tags: N-terminal His (pET28a-NHis-UvrA), chain copies: 2, blunt

## Nc1ncnc2c1ncn2[C@@H]1O[C@H](COP(=O)(O)OP(=O)(O)O)[C@@H](O)[C@H]1O [ADP]
[1]
  X-ray crystal structure, 2.0 Å: the fully ADP-bound structure reported here further supports this hypothesis

## Nc1ncnc2c1ncn2[C@@H]1O[C@H](COP(=O)(O)OP(=O)(O)OP(=O)(O)O)[C@@H](O)[C@H]1O [ATP]
[2]
  Best-fit values: 1 µM

B1: fluorescein lesion DNA, 50 bp duplex (dsDNA)
DNA 1: CCTGTCAGCTCGTTCTGAGTTCCAGTAGTAATGTGGCCGTAAGTAATCCA
DNA 2: TGGATTACTTACGGCCACATTACTACTGGAACTCAGAACGAGCTGACAGG
modifications: internal fluorescein-dT (iFluorT) at position 26 of strand 1, acts as lesion
[3]; label: internal fluorescein (strand 1, T26)
  Kd: 12 ± 2 nM

B2: native (undamaged) DNA, 50 bp duplex (dsDNA)
DNA 1: B1 DNA 2
DNA 2: B1 DNA 1
[3]; label: 5' 6-FAM on strand 1 (template)
  Kd: 45 ± 7 nM
